Source: patent publication US20250034136A1 (Nimbus Wadjet, Inc., priority 2023, published 2025)

What was measured:
[1] = system: p21 induction in HCT116 cells; test: p21 induction in HCT116 cells; assay type: cell-based; settings: Homo sapiens, HCT-116, 24 h, HCT116 cells, 24 h compound incubation; read-out: P21_EC50
Summary of the method: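 EC50 from non-linear curve fit of p21 immunofluorescence (800 nm), with GAPDH (700 nm) read alongside. DMSO and a reference WRN inhibitor served as low and high controls. Cells (2,000/well) got 11 compound concentrations in duplicate for 24 h at 37 °C.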

[2] = target: WRN (BV08), human Werner helicase (Uniprot Q14191, amino acids 517-1235 with L1074F point mutation) (Homo sapiens (Human), UniProt Q14191, L1074F); test: WRN (BV08) ADP-Glo assay; assay type: biochemical; settings: class symbols A-E, read-out: ADP-Glo_hWRN_IC50
Chain of WRN (BV08), human Werner helicase (Uniprot Q14191, amino acids 517-1235 with L1074F point mutation) (Q14191 other isoform, or with tags, fused parts or gaps L1074F (already in the parent)): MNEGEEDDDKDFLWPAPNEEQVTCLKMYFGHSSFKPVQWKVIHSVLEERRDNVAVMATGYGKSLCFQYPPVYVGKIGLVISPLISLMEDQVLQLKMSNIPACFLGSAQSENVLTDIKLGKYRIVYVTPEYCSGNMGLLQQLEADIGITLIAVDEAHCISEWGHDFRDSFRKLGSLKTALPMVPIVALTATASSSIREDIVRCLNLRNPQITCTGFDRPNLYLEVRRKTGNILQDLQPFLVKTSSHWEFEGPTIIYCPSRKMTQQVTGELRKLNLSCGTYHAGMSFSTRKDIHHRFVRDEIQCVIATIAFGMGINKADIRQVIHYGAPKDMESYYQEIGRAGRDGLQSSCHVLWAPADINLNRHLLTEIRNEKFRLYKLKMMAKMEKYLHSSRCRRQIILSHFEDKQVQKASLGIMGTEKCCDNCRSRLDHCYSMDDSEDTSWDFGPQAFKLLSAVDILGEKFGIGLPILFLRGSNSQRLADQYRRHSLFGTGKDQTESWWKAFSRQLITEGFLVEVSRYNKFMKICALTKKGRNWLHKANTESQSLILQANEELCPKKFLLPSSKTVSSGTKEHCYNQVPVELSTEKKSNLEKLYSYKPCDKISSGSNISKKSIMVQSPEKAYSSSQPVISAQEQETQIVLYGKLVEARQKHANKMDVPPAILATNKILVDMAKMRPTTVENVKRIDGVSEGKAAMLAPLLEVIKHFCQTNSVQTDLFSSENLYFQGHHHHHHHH

| Structure (SMILES) | EC50 [1] | IC50 [2] |
| --- | --- | --- |
| CCc1c(N2CCN(C(=O)c3ncnc(C)c3O)[C@H]3CC[C@@H]32)c(=O)c2nc(N3CCCC3=O)cnc2n1CC(=O)Nc1ccc(C(F)(F)F)cc1Cl [I-253, N-[2-chloro-4-(trifluoromethyl)phenyl]-2-{6-ethyl-7-[(1S,6S)-5-(5-hydroxy-6-methylpyrimidine-4-carbonyl)-2,5-diazabicyclo[4.2.0]octan-2-yl]-8-oxo-2-(2-oxopyrrolidin-1-yl)-5H,8H-pyrido[2,3-b]pyrazin-5-yl}acetamide] | < 500 nM | 5 to 50 nM |
| CCc1c(N2CCN(C(=O)c3ncnc(C)c3O)CC2)c(=O)c2nc(C3(C#N)CC3)cnc2n1CC(=O)Nc1ccc(C(F)(F)F)cc1Cl [I-254, N-[2-chloro-4-(trifluoromethyl)phenyl]-2-[2-(1-cyanocyclopropyl)-6-ethyl-7-[4-(5-hydroxy-6-methylpyrimidine-4-carbonyl)piperazin-1-yl]-8-oxo-5H,8H-pyrido[2,3-b]pyrazin-5-yl]acetamide] | 500 to 2000 nM | 5 to 50 nM |
| CCc1c(N2CCN(C(=O)c3ncnc(C)c3O)[C@H]3CC[C@@H]32)c(=O)c2nc(N(C)CCOC)cnc2n1CC(=O)Nc1ccc(C(F)(F)F)cc1Cl [I-255, N-[2-chloro-4-(trifluoromethyl)phenyl]-2-{6-ethyl-7-[(1S,6S)-5-(5-hydroxy-6-methylpyrimidine-4-carbonyl)-2,5-diazabicyclo[4.2.0]octan-2-yl]-2-[(2-methoxyethyl)(methyl)amino]-8-oxo-5H,8H-pyrido[2,3-b]pyrazin-5-yl}acetamide] | < 500 nM | 5 to 50 nM |
| CCc1c(N2CC3CC2CN3C(=O)c2ncnc(C)c2O)c(=O)c2nc(N(C)C)cnc2n1CC(=O)Nc1ccc(C(F)(F)F)cc1Cl (stereo not drawn) [I-258, N-[2-chloro-4-(trifluoromethyl)phenyl]-2-[2-(dimethylamino)-6-ethyl-7-[5-(5-hydroxy-6-methylpyrimidine-4-carbonyl)-2,5-diazabicyclo[2.2.1]heptan-2-yl]-8-oxo-5H,8H-pyrido[2,3-b]pyrazin-5-yl]acetamide] | > 5000 nM | 100 to 500 nM |
| CCc1c(N2CCN(C(=O)c3cc(C)cnc3OC)[C@H]3CC[C@@H]32)c(=O)c2nc(N(C)C)cnc2n1CC(=O)Nc1ccc(C(F)(F)F)cc1Cl [I-259, N-[2-chloro-4-(trifluoromethyl)phenyl]-2-[2-(dimethylamino)-6-ethyl-7-[(1S,6S)-5-(2-methoxy-5-methylpyridine-3-carbonyl)-2,5-diazabicyclo[4.2.0]octan-2-yl]-8-oxo-5H,8H-pyrido[2,3-b]pyrazin-5-yl]acetamide] | 500 to 2000 nM | 5 to 50 nM |
| CCc1c(N2CCN(C(=O)c3c(OC)ncc(C)c3O)[C@H]3CC[C@@H]32)c(=O)c2nc(N(C)C)cnc2n1CC(=O)Nc1ccc(C(F)(F)F)cc1Cl [I-261, N-[2-chloro-4-(trifluoromethyl)phenyl]-2-[2-(dimethylamino)-6-ethyl-7-[(1S,6S)-5-(4-hydroxy-2-methoxy-5-methylpyridine-3-carbonyl)-2,5-diazabicyclo[4.2.0]octan-2-yl]-8-oxo-5H,8H-pyrido[2,3-b]pyrazin-5-yl]acetamide] | < 500 nM | 5 to 50 nM |
| CCc1c(N2CCN(C(=O)c3ncnc(C)c3O)[C@H]3CC[C@@H]32)c(=O)c2nc(C)cnc2n1CC(=O)Nc1ccc(C(F)(F)F)cc1Cl [I-262, N-[2-chloro-4-(trifluoromethyl)phenyl]-2-{6-ethyl-7-[(1S,6S)-5-(5-hydroxy-6-methylpyrimidine-4-carbonyl)-2,5-diazabicyclo[4.2.0]octan-2-yl]-2-methyl-8-oxo-5H,8H-pyrido[2,3-b]pyrazin-5-yl}acetamide] | < 500 nM | 5 to 50 nM |
| CCc1c(N2CCN(C(=O)c3ncnc(C)c3O)[C@H]3CC[C@@H]32)c(=O)c2nc(N3CCNCC3)cnc2n1CC(=O)Nc1ccc(C(F)(F)F)cc1Cl [I-263, N-[2-chloro-4-(trifluoromethyl)phenyl]-2-{6-ethyl-7-[(1S,6S)-5-(5-hydroxy-6-methylpyrimidine-4-carbonyl)-2,5-diazabicyclo[4.2.0]octan-2-yl]-8-oxo-2-(piperazin-1-yl)-5H,8H-pyrido[2,3-b]pyrazin-5-yl}acetamide] | > 5000 nM | 5 to 50 nM |
| CCc1c(N2CCN(C(=O)c3ncnc(C)c3O)[C@H]3CC[C@@H]32)c(=O)c2nc(N(C)CCO)cnc2n1CC(=O)Nc1ccc(C(F)(F)F)cc1Cl [I-264, N-[2-chloro-4-(trifluoromethyl)phenyl]-2-{6-ethyl-7-[(1S,6S)-5-(5-hydroxy-6-methylpyrimidine-4-carbonyl)-2,5-diazabicyclo[4.2.0]octan-2-yl]-2-[(2-hydroxyethyl)(methyl)amino]-8-oxo-5H,8H-pyrido[2,3-b]pyrazin-5-yl}acetamide] | < 500 nM | 5 to 50 nM |
| CCc1c(N2CCN(C(=O)c3cccc4ncoc34)[C@H]3CC[C@@H]32)c(=O)c2nc(N(C)C)cnc2n1CC(=O)Nc1ccc(C(F)(F)F)cc1Cl [I-265, 2-{7-[(1S,6S)-5-(1,3-benzoxazole-7-carbonyl)-2,5-diazabicyclo[4.2.0]octan-2-yl]-2-(dimethylamino)-6-ethyl-8-oxo-5H,8H-pyrido[2,3-b]pyrazin-5-yl}-N-[2-chloro-4-(trifluoromethyl)phenyl]acetamide] | 2000 to 5000 nM | 5 to 50 nM |
| CCc1c(N2CCN(C(=O)c3ncnc(C)c3O)[C@H]3CC[C@@H]32)c(=O)c2nc(N[C@H](C)[C@H](C)O)cnc2n1CC(=O)Nc1ccc(C(F)(F)F)cc1Cl [I-266, N-[2-chloro-4-(trifluoromethyl)phenyl]-2-{6-ethyl-7-[(1S,6S)-5-(5-hydroxy-6-methylpyrimidine-4-carbonyl)-2,5-diazabicyclo[4.2.0]octan-2-yl]-2-{[(2R,3S)-3-hydroxybutan-2-yl]amino}-8-oxo-5H,8H-pyrido[2,3-b]pyrazin-5-yl}acetamide] | 500 to 2000 nM | 5 to 50 nM |
| CCc1c(N2CCN(C(=O)c3ncnc(C)c3O)[C@H]3CC[C@@H]32)c(=O)c2nc(N(C)[C@H]3C[C@H](OC)C3)cnc2n1CC(=O)Nc1ccc(C(F)(F)F)cc1Cl [I-267, N-[2-chloro-4-(trifluoromethyl)phenyl]-2-{6-ethyl-7-[(1S,6S)-5-(5-hydroxy-6-methylpyrimidine-4-carbonyl)-2,5-diazabicyclo[4.2.0]octan-2-yl]-2-{methyl[(1r,3r)-3-methoxycyclobutyl]amino}-8-oxo-5H,8H-pyrido[2,3-b]pyrazin-5-yl}acetamide] | < 500 nM | 5 to 50 nM |
| CCc1c(N2CCN(C(=O)c3ncnc(C)c3O)[C@H]3CC[C@@H]32)c(=O)c2nc(-c3cn[nH]c3)cnc2n1CC(=O)Nc1ccc(C(F)(F)F)cc1Cl [I-268, N-[2-chloro-4-(trifluoromethyl)phenyl]-2-{6-ethyl-7-[(1S,6S)-5-(5-hydroxy-6-methylpyrimidine-4-carbonyl)-2,5-diazabicyclo[4.2.0]octan-2-yl]-8-oxo-2-(1H-pyrazol-4-yl)-5H,8H-pyrido[2,3-b]pyrazin-5-yl}acetamide] | < 500 nM | ≤ 5 nM |
| CCc1c(N2CCN(C(=O)c3ncnc(C)c3O)[C@H]3CC[C@@H]32)c(=O)c2nc(N(C)C[C@H](C)OC)cnc2n1CC(=O)Nc1ccc(C(F)(F)F)cc1Cl [I-269, N-[2-chloro-4-(trifluoromethyl)phenyl]-2-{6-ethyl-7-[(1S,6S)-5-(5-hydroxy-6-methylpyrimidine-4-carbonyl)-2,5-diazabicyclo[4.2.0]octan-2-yl]-2-{[(2S)-2-methoxypropyl](methyl)amino}-8-oxo-5H,8H-pyrido[2,3-b]pyrazin-5-yl}acetamide] | < 500 nM | 5 to 50 nM |
| CCc1c(N2CCN(C(=O)c3ncnc(C)c3O)[C@H]3CC[C@@H]32)c(=O)c2nc(N3CC[C@@H](O)C3)cnc2n1CC(=O)Nc1ccc(C(F)(F)F)cc1Cl [I-270, N-[2-chloro-4-(trifluoromethyl)phenyl]-2-{6-ethyl-7-[(1S,6S)-5-(5-hydroxy-6-methylpyrimidine-4-carbonyl)-2,5-diazabicyclo[4.2.0]octan-2-yl]-2-[(3R)-3-hydroxypyrrolidin-1-yl]-8-oxo-5H,8H-pyrido[2,3-b]pyrazin-5-yl}acetamide] | 500 to 2000 nM | 5 to 50 nM |
| CCc1c(N2CCN(C(=O)c3ncnc(C)c3O)[C@H]3CC[C@@H]32)c(=O)c2nc(N3CC[C@H](O)C3)cnc2n1CC(=O)Nc1ccc(C(F)(F)F)cc1Cl [I-271, N-[2-chloro-4-(trifluoromethyl)phenyl]-2-{6-ethyl-7-[(1S,6S)-5-(5-hydroxy-6-methylpyrimidine-4-carbonyl)-2,5-diazabicyclo[4.2.0]octan-2-yl]-2-[(3S)-3-hydroxypyrrolidin-1-yl]-8-oxo-5H,8H-pyrido[2,3-b]pyrazin-5-yl}acetamide] | 500 to 2000 nM | 5 to 50 nM |
| CCc1c(N2CCN(C(=O)c3ncnc(C)c3O)[C@H]3CC[C@@H]32)c(=O)c2nc(-c3cncs3)cnc2n1CC(=O)Nc1ccc(C(F)(F)F)cc1Cl [I-272, N-[2-chloro-4-(trifluoromethyl)phenyl]-2-{6-ethyl-7-[(1S,6S)-5-(5-hydroxy-6-methylpyrimidine-4-carbonyl)-2,5-diazabicyclo[4.2.0]octan-2-yl]-8-oxo-2-(1,3-thiazol-5-yl)-5H,8H-pyrido[2,3-b]pyrazin-5-yl}acetamide] | < 500 nM | 5 to 50 nM |
| CCc1c(N2CCN(C(=O)c3c(Oc4cnn(C)c4)ncc(C)c3O)[C@H]3CC[C@@H]32)c(=O)c2nc(N(C)C)cnc2n1CC(=O)Nc1ccc(C(F)(F)F)cc1Cl [I-273, N-[2-chloro-4-(trifluoromethyl)phenyl]-2-[2-(dimethylamino)-6-ethyl-7-[(1S,6S)-5-{4-hydroxy-5-methyl-2-[(1-methyl-1H-pyrazol-4-yl)oxy]pyridine-3-carbonyl}-2,5-diazabicyclo[4.2.0]octan-2-yl]-8-oxo-5H,8H-pyrido[2,3-b]pyrazin-5-yl]acetamide] | < 500 nM | 5 to 50 nM |
